Key:
[1] = molecular target: Beta-2 adrenergic receptor (Homo sapiens) (UniProt P07550); test: BETA2/HUM Eurofins SafetyScreen44 (BI); conditions: filed as antagonist, Compound concentration 10.0 uM
[2] = molecular target: 5-hydroxytryptamine receptor 2A (Homo sapiens) (UniProt P28223); test: 5HT2AH_AGON Eurofins SafetyScreen44 (BI); conditions: filed as agonist, Compound concentration 10.0 uM
[3] = molecular target: Kappa-type opioid receptor (Homo sapiens) (UniProt P41145); test: KAPPA(KOP)_HU Eurofins SafetyScreen44 (BI); conditions: Compound concentration 10.0 uM
Kappa-type opioid receptor (Homo sapiens), sequence (P41145 whole entry): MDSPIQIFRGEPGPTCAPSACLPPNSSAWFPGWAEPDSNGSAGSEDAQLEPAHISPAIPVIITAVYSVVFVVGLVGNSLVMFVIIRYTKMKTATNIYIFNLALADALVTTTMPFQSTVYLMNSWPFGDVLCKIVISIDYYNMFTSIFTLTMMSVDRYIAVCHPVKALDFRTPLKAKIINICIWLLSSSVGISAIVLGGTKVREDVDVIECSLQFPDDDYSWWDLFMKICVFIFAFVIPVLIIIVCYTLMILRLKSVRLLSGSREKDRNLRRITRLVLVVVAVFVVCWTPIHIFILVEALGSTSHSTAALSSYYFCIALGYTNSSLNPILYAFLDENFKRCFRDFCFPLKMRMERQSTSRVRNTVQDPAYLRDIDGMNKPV

[4] = molecular target: Glutamate receptor ionotropic, NMDA 2A (Rattus norvegicus) (UniProt Q00959); test: NMDA/R Eurofins SafetyScreen44 (BI); conditions: Compound concentration 10.0 uM
Glutamate receptor ionotropic, NMDA 2A (Rattus norvegicus), sequence (Q00959 23-1464 limits assumed): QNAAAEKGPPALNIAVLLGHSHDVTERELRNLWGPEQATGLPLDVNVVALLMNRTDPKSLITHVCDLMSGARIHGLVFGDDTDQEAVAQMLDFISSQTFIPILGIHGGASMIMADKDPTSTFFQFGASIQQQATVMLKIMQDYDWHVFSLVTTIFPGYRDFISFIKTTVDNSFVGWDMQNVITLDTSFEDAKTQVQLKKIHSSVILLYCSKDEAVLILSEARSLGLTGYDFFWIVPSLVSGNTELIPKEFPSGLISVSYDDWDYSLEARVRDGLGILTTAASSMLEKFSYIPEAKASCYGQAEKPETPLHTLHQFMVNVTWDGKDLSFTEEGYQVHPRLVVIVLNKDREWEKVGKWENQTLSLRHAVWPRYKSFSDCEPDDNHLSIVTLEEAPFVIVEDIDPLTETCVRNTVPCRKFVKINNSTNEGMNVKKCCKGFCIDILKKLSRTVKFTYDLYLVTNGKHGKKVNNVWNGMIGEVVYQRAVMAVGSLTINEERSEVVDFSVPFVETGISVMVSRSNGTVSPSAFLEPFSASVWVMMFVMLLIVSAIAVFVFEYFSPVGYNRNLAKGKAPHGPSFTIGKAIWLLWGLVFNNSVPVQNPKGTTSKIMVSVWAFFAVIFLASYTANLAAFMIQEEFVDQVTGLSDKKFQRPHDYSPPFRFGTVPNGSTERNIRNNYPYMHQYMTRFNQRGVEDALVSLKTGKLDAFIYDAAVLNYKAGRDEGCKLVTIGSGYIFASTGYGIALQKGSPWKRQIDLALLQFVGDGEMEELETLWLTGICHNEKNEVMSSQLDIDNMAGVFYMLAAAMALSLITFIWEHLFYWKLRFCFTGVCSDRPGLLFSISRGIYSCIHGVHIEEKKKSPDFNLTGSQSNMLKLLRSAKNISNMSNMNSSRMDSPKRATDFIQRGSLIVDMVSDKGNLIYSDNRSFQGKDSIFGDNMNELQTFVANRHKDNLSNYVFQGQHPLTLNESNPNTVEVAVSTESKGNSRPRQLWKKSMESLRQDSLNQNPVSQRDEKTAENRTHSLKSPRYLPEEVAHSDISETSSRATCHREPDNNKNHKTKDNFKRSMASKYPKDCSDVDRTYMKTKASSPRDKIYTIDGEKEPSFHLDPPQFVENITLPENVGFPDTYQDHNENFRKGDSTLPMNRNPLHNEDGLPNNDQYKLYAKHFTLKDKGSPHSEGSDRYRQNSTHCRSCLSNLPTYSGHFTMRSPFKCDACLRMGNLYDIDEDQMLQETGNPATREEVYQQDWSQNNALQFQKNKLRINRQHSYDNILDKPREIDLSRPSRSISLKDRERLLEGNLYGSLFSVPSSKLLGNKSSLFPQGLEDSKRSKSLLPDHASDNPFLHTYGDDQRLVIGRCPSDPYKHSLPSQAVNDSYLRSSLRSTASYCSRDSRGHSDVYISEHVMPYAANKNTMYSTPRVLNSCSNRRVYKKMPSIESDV

[5] = molecular target: T1, 5-hydroxytryptamine receptor 1A (Homo sapiens) (UniProt P08908); test: 5HT1A/H Eurofins SafetyScreen44 (BI); conditions: Compound concentration 10.0 uM
T1 sequence (whole entry): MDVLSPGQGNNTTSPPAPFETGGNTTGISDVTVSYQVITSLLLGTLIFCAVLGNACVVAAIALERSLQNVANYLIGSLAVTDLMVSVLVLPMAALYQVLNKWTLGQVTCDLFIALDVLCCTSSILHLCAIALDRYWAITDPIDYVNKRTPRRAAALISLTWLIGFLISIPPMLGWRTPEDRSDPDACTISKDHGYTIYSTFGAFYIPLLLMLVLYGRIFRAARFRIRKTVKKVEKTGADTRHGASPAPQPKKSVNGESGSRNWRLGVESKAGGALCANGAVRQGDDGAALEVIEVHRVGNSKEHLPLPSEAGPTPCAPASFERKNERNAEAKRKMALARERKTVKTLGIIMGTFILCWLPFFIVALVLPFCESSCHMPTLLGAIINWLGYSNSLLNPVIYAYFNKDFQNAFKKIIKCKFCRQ

[6] = molecular target: Prostaglandin G/H synthase 2 (Homo sapiens) (UniProt P35354); test: COX-2 Eurofins SafetyScreen44 (BI); conditions: Compound concentration 10.0 uM
Prostaglandin G/H synthase 2 (Homo sapiens), sequence (P35354 whole entry): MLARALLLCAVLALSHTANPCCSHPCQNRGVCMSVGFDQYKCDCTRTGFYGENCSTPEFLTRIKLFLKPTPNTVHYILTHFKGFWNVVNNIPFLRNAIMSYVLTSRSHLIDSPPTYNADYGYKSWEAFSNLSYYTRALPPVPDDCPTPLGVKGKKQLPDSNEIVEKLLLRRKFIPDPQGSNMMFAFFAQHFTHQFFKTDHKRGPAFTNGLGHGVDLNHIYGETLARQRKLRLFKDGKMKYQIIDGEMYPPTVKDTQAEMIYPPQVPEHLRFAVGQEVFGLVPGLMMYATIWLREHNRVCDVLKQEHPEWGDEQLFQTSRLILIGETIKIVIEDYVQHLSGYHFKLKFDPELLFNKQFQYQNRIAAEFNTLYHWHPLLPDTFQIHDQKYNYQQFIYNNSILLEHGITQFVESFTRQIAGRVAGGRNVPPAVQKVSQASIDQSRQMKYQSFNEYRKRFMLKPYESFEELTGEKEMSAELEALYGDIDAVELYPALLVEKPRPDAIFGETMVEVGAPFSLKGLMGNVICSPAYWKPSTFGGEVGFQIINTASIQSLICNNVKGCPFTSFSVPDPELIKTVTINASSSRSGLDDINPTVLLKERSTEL

[7] = molecular target: T2, Muscarinic acetylcholine receptor M2 (Homo sapiens) (UniProt P08172); test: M2/H Eurofins SafetyScreen44 (BI); conditions: filed as antagonist, Compound concentration 10.0 uM
T2 sequence (whole entry): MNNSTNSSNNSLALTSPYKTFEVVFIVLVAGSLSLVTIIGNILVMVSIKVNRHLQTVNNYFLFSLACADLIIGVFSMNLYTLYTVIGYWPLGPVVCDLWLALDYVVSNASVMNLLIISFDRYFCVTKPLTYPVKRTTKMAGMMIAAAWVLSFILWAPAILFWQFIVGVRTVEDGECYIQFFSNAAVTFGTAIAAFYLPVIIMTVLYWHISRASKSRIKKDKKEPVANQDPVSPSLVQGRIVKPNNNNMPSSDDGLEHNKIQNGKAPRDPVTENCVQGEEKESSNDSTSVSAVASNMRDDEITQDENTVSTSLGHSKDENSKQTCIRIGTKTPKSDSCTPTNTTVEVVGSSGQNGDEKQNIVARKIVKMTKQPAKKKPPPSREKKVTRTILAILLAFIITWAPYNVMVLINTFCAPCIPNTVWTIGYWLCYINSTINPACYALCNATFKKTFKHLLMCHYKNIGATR

[8] = molecular target: Nicotinic acetylcholine receptor alpha-1/beta-1 (Homo sapiens) (UniProt P02708+P11230); test: NACH_BS_N/H Eurofins SafetyScreen44 (BI); format: protein-complex assay; conditions: Compound concentration 10.0 uM
[9] = molecular target: T3, Alpha-2C adrenergic receptor (Homo sapiens) (UniProt P18825); test: ALPHA2C/H Eurofins SafetyScreen44 (BI)
T3 sequence (whole entry): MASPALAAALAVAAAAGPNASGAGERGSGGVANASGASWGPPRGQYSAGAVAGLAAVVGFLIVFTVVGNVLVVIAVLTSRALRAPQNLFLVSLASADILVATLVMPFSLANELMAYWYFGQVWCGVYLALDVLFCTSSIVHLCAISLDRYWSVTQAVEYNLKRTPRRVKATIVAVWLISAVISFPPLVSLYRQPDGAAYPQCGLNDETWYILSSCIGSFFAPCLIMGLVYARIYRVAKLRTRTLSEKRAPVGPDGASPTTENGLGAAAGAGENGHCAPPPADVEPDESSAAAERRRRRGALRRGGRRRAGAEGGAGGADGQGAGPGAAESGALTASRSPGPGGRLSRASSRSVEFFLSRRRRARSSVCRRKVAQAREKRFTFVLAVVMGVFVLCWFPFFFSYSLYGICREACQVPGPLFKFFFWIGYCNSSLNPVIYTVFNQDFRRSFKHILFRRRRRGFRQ

[10] = molecular target: Neuropeptide Y receptor type 1 (Homo sapiens) (UniProt P25929); test: Y1/HU Eurofins SafetyScreen44 (BI); conditions: Compound concentration 10.0 uM
Neuropeptide Y receptor type 1 (Homo sapiens), sequence (P25929 whole entry): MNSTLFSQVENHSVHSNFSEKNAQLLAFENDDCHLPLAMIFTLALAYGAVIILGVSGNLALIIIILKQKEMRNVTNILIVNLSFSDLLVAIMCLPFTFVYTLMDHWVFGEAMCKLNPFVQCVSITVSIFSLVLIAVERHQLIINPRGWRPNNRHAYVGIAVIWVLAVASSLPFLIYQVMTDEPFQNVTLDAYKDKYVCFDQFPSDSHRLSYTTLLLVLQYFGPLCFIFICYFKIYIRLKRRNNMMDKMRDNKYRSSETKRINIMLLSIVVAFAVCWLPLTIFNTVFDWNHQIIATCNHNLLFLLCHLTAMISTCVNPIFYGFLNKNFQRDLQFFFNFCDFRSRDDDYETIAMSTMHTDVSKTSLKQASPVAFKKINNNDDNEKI

[11] = molecular target: T4, 5-hydroxytryptamine receptor 3A (Homo sapiens) (UniProt P46098); test: 5HT3/HU Eurofins SafetyScreen44 (BI); conditions: Compound concentration 10.0 uM
T4 sequence (whole entry): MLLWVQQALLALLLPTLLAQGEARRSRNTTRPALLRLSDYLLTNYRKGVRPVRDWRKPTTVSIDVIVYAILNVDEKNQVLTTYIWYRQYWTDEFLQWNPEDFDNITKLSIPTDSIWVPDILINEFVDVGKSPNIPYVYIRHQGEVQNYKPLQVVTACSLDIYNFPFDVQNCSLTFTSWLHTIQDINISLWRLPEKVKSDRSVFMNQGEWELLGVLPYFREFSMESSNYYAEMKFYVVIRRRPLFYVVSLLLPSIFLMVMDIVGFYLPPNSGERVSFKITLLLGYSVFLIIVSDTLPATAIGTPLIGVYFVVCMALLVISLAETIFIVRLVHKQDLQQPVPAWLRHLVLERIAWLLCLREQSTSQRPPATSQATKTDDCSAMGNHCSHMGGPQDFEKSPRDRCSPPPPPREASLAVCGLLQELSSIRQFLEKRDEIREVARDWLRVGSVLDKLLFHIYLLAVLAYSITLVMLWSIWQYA

[12] = molecular target: Beta-1 adrenergic receptor (Homo sapiens) (UniProt P08588); test: BETA1/HU Eurofins SafetyScreen44 (BI); conditions: Compound concentration 10.0 uM
Beta-1 adrenergic receptor (Homo sapiens), sequence (P08588 whole entry, looked up): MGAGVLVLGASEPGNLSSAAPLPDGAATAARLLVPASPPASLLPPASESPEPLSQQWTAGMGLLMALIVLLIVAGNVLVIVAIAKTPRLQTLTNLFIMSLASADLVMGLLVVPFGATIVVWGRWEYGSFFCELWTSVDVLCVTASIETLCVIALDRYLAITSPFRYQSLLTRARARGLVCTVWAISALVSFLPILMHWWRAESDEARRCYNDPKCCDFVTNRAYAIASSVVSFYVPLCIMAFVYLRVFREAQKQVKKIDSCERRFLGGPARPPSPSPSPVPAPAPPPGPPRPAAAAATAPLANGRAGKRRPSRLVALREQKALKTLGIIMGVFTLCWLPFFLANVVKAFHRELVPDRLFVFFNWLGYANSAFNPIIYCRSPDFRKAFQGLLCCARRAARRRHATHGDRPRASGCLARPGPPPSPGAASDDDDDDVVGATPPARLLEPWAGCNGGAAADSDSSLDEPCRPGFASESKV

[13] = molecular target: Melatonin receptor type 1A (Homo sapiens) (UniProt P48039); test: MT1/H Eurofins SafetyScreen44 (BI); conditions: Compound concentration 10.0 uM
Melatonin receptor type 1A (Homo sapiens), sequence (P48039 whole entry): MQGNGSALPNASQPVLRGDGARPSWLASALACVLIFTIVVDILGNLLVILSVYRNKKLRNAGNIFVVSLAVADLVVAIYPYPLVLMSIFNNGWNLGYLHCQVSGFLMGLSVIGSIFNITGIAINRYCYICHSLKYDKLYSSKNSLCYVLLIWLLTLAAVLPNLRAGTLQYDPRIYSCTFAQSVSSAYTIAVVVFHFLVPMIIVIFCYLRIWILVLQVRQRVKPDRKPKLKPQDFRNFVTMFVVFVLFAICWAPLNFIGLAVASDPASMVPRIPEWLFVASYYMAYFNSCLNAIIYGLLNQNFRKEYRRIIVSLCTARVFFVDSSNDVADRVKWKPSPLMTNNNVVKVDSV

5-hydroxytryptamine receptor 2A (Homo sapiens), sequence (P28223 whole entry): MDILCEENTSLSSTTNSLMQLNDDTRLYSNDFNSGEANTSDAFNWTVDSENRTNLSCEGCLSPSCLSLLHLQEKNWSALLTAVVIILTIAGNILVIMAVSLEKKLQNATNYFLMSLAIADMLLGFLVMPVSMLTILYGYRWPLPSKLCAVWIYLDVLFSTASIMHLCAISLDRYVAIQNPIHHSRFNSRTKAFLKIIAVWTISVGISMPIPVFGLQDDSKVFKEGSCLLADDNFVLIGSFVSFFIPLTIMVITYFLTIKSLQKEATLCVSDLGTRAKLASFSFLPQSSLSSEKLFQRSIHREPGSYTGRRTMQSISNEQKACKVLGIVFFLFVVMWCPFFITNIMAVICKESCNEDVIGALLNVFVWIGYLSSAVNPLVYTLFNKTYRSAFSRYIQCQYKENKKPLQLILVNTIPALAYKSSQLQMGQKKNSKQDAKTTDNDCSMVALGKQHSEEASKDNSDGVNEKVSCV
Beta-2 adrenergic receptor (Homo sapiens), sequence (P07550 whole entry, looked up): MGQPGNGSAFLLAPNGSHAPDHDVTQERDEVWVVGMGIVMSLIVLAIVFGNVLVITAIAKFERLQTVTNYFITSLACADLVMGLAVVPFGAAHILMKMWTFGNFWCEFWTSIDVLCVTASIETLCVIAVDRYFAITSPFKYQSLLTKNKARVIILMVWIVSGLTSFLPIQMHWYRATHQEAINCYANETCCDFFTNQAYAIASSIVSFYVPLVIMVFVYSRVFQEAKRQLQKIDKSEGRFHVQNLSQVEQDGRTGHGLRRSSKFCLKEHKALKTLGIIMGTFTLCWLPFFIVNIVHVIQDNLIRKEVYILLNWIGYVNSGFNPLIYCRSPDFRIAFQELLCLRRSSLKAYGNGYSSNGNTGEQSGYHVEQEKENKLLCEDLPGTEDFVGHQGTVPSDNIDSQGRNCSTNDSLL

Row | Compound | residual activity [1] [%] | residual activity [2] [%] | residual activity [3] [%] | residual activity [4] [%] | residual activity [5] [%] | residual activity [6] [%] | residual activity [7] [%] | residual activity [8] [%] | residual activity ([9]; Compound concentration 0.1 uM) [%] | residual activity ([9]; Compound concentration 0.3 uM) [%] | residual activity ([9]; Compound concentration 1.0 uM) [%] | residual activity ([9]; Compound concentration 3.0 uM) [%] | residual activity ([9]; Compound concentration 10.0 uM) [%] | residual activity ([9]; Compound concentration 30.0 uM) [%] | residual activity [10] [%] | residual activity [11] [%] | residual activity [12] [%] | residual activity [13] [%]
1 | COCCCS(=O)(=O)c1cc(C)c(-c2ccc(F)c3c2CC[C@H]3Oc2ccc3c(c2)OC[C@H]3CC(=O)O)c(C)c1 | 99 | 101 | 96 | 87 | 103 | 81 | 112 | – | – | – | – | – | – | – | – | – | – | –
2 | Cc1cc(OCCC(C)(C)O)cc(C)c1-c1ccc(F)c2c1CC[C@H]2Oc1ccc2c(c1)OC[C@H]2CC(=O)O | – | – | – | – | – | – | – | 84 | 93 | 100 | 95 | 82 | 23 | 1 | 108 | 100 | 98 | 98
